Results published in patent US11214803B2, “Modulators of YAP1 expression” (Ionis Pharmaceuticals, Inc., priority 2019, dated 2022).
Strand notation (5' to 3'): a small letter for the sugar, then the base; units joined by * are phosphorothioate-linked, units joined directly phosphodiester-linked; [ ] holds rarer units or linkages, { } end groups; capitals alone tell only the bases. k = constrained ethyl (cEt); [5mC] = 5-methylcytosine; d = 2'-deoxy (DNA)

Test system: Yap1 mRNA
Experiment: Antisense inhibition of human Yap1 in A-431 cells by cEt gapmers, single dose (Example 2, RTS4814)
Assay type: cell-based
Summary of the method: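 Read-out is Yap1 mRNA as percent of untreated cells, by real-time RT-PCR (probe set RTS4814) normalized to total RNA via RIBOGREEN. Cells were A-431 dosed with 2,000 nM gapmer without transfection for approximately 48 hours.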

[1] = Yap1 mRNA as percent of untreated control, A-431 cells, 3-10-3 cEt gapmers targeting SEQ ID NO.: 1, and 2, Table 30
[2] = Table 23, Yap1 mRNA as percent of untreated control, 3-10-3 cEt gapmers, single dose
[3] = Table 22, Yap1 mRNA as percent of untreated control, 3-10-3 cEt gapmers, single dose
[4] = Table 18, A-431 cells, 5,000 cells per well, free uptake, 2,000 nM modified oligonucleotide, approx. 48 hours, RTS4814, normalized to RIBOGREEN, Yap1 mRNA as percent of untreated control
[5] = Table 33, Yap1 mRNA, percent of untreated control, 3-10-3 cEt gapmers targeting SEQ ID NO.: 1, and 2
[6] = Table 19, A-431 cells, 5,000 cells per well, free uptake, 2,000 nM modified oligonucleotide, approx. 48 hours, RTS4814, normalized to RIBOGREEN, Yap1 mRNA as percent of untreated control
[7] = Table 32, Yap1 mRNA, percent of untreated control, 3-10-3 cEt gapmers targeting SEQ ID NO.: 1, and 2
[8] = Table 25, Yap1 mRNA as percent of untreated control, 3-10-3 cEt gapmers targeting SEQ ID NO.: 1, and 2
[9] = Table 24, Yap1 mRNA as percent of untreated control, 3-10-3 cEt gapmers targeting SEQ ID NO.: 1, and 2
[10] = A-431 cells, 5,000 cells per well, free uptake, 2,000 nM modified oligonucleotide, approx. 48 hours, RTS4814, normalized to RIBOGREEN, Table 4, asterisk (*) = targets amplicon region of primer probe set
[11] = Table 5, A-431 cells, 5,000 cells per well, free uptake, 2,000 nM modified oligonucleotide, approx. 48 hours, RTS4814, normalized to RIBOGREEN, Yap1 mRNA relative to untreated control cells
[12] = Table 21, Yap1 mRNA, percent of untreated control, 3-10-3 cEt gapmers targeting SEQ ID NO.: 1 and 2

1074896 (antisense kG*k[5mC]*kA*dA*dA*dG*dT*dT*d[5mC]*d[5mC]*dT*dA*dT*kG*k[5mC]*kT) [compound 1074896]
YAP1 (% UTC) [1]: 99 % UTC

1075657 (kT*kA*kA*dA*dA*dA*dA*d[5mC]*dG*dG*dT*dT*dT*kT*kT*k[5mC]; antisense) [Compound 1075657]
YAP1 (% UTC) [2]: 84 % UTC

1074824 (k[5mC]*k[5mC]*kT*dG*dA*dG*d[5mC]*dA*d[5mC]*dT*d[5mC]*dA*dT*kT*kT*k[5mC]; antisense) [Compound 1074824]
YAP1 (% UTC) [3]: 53 % UTC

1075684 (kT*k[5mC]*kT*dG*dA*dA*dA*dA*dA*dG*dT*dT*dA*kT*kG*k[5mC]; antisense) [Compound 1075684]
YAP1 (% UTC) [4]: 78 % UTC

1074246 (antisense kA*kA*kG*dA*dA*dG*dT*dA*dT*d[5mC]*dT*d[5mC]*dT*kG*kA*k[5mC]) [Compound 1074246]
YAP1 (% UTC) (Table 20, Yap1 mRNA, percent of untreated control, 3-10-3 cEt gapmers targeting SEQ ID NO.: 1 and 2): 11 % UTC

1074771 (kA*kA*kT*d[5mC]*dT*dT*dA*dT*d[5mC]*d[5mC]*d[5mC]*dA*dA*kT*kG*k[5mC]; antisense) [compound 1074771]
YAP1 (% UTC) [5]: 18 % UTC

1075269 (antisense kT*kT*kA*dT*dT*dA*dA*d[5mC]*d[5mC]*dT*dG*dG*dA*kG*kA*kG) [Compound 1075269]
YAP1 (% UTC) [6]: 13 % UTC

1076562 (kT*kA*kT*dT*dA*d[5mC]*dA*dG*dA*dG*dG*dG*dT*kA*kG*k[5mC]; antisense) [compound 1076562]
YAP1 (% UTC) [7]: 17 % UTC

1076555 (antisense kT*kG*kG*dG*dA*dA*dT*dA*dG*dT*dA*d[5mC]*dA*k[5mC]*kA*kG) [Compound 1076555]
YAP1 (% UTC) [8]: 19 % UTC

1075914 (kA*kT*kT*dT*dA*dG*dG*dA*dT*dG*d[5mC]*d[5mC]*dT*kT*kT*kA; antisense) [Compound 1075914]
YAP1 (% UTC) [9]: 14 % UTC

716388 (kA*kG*kA*dG*dG*dT*dG*dG*dT*d[5mC]*dT*dT*dG*kT*kT*k[5mC]; antisense) [Compound 716388]
YAP1 (% UTC) [10]: 55 % UTC

716515 (antisense kT*kA*kA*dG*d[5mC]*dT*dA*dA*dA*dG*d[5mC]*dT*dA*kA*kT*k[5mC]) [Compound 716515]
YAP1 (% UTC) [11]: 123 % UTC

1075720 (k[5mC]*kT*kT*dT*dA*d[5mC]*dT*dA*d[5mC]*dA*dT*dA*dT*kA*kG*k[5mC]; antisense) [Compound 1075720]
YAP1 (% UTC) [3]: 47 % UTC

716431 (kA*kA*kT*dG*dA*dT*dT*dG*dG*dT*dG*dA*dA*k[5mC]*kA*kT; antisense) [Compound 716431]
YAP1 (% UTC) [11]: 55 % UTC

1076426 (kA*k[5mC]*kG*dG*dG*dA*dA*dA*dA*dT*dT*d[5mC]*dT*kG*kG*kA; antisense) [Compound 1076426]
YAP1 (% UTC) [9]: 9 % UTC

1076144 (kT*kT*kT*dT*dA*dT*dA*dG*dG*dG*d[5mC]*dA*dA*kT*kG*kG; antisense) [compound 1076144]
YAP1 (% UTC) [1]: 7 % UTC

1076330 (kG*kA*kA*dT*dT*dA*dT*dA*d[5mC]*dT*dG*dG*d[5mC]*kT*kA*k[5mC]; antisense) [Compound 1076330]
YAP1 (% UTC) [9]: 3 % UTC

1075304 (k[5mC]*kA*k[5mC]*dG*dG*dG*dT*dA*d[5mC]*d[5mC]*dA*dG*dA*kA*kA*kA; antisense) [Compound 1075304]
YAP1 (% UTC) [3]: 50 % UTC

716362 (kA*kG*kG*d[5mC]*dG*dG*d[5mC]*dT*dG*d[5mC]*d[5mC]*d[5mC]*dT*kT*kG*kG; antisense) [Compound 716362]
YAP1 (% UTC) [11]: 94 % UTC

716500 (kA*kA*k[5mC]*dT*dT*d[5mC]*dT*dT*dA*d[5mC]*dT*dT*d[5mC]*k[5mC]*kA*kA; antisense) [Compound 716500]
YAP1 (% UTC) [11]: 18 % UTC

716472 (kG*kT*k[5mC]*dA*dT*dG*d[5mC]*dA*d[5mC]*dA*dT*dT*dA*kT*kG*kA; antisense) [Compound 716472]
YAP1 (% UTC) [10]: 78 % UTC

716494 (kA*kA*kG*dG*dG*d[5mC]*dT*dT*dA*dT*dT*d[5mC]*dT*kA*kG*kA; antisense) [Compound 716494]
YAP1 (% UTC) [11]: 112 % UTC

1075940 (kA*k[5mC]*kT*d[5mC]*dA*dA*d[5mC]*dA*dA*d[5mC]*d[5mC]*d[5mC]*d[5mC]*kA*kA*kG; antisense) [Compound 1075940]
YAP1 (% UTC) [4]: 54 % UTC

1075154 (k[5mC]*kA*kT*dT*dA*dT*dA*dA*dT*dG*dG*dG*dA*kG*kG*kA; antisense) [compound 1075154]
YAP1 (% UTC) [7]: 13 % UTC

1075301 (k[5mC]*kA*kG*d[5mC]*dA*dA*d[5mC]*dA*d[5mC]*d[5mC]*dT*dA*dA*kG*kG*kA; antisense) [Compound 1075301]
YAP1 (% UTC) [6]: 92 % UTC

1075730 (kG*kT*kA*dT*dT*dT*dA*dA*dA*dA*dA*dT*dA*kG*k[5mC]*kG; antisense) [compound 1075730]
YAP1 (% UTC) [7]: 92 % UTC

716432 (kT*k[5mC]*kT*dG*dA*dG*dT*dA*dT*dT*dT*dA*dG*kT*kT*kA; antisense) [Compound 716432]
YAP1 (% UTC) (Table 6, A-431 cells, 5,000 cells per well, free uptake, 2,000 nM modified oligonucleotide, approx. 48 hours, RTS4814, normalized to RIBOGREEN, Yap1 mRNA relative to untreated control cells): 30 % UTC

1075049 (antisense kG*kA*kA*dA*dT*dA*dT*dT*dG*dG*dT*dA*dA*kG*kT*k[5mC]) [Compound 1075049]
YAP1 (% UTC) [2]: 10 % UTC

1074155 (antisense k[5mC]*k[5mC]*k[5mC]*dG*dG*d[5mC]*dT*d[5mC]*d[5mC]*dA*d[5mC]*dG*dG*kG*k[5mC]*k[5mC]) [Compound 1074155]
YAP1 (% UTC) [8]: 87 % UTC

1074929 (antisense kT*kA*kT*dA*d[5mC]*dA*dA*d[5mC]*dA*dG*dG*d[5mC]*d[5mC]*kT*kG*k[5mC]) [compound 1074929]
YAP1 (% UTC) (Yap1 mRNA as percent of untreated control, A-431 cells, 3-10-3 cEt gapmers targeting SEQ ID NO.: 1, and 2, Table 31): 79 % UTC

716469 (kG*kT*kT*dT*dG*d[5mC]*dT*d[5mC]*d[5mC]*dT*dT*dT*d[5mC]*k[5mC]*kA*kA; antisense) [Compound 716469]
YAP1 (% UTC) [10]: 25 % UTC

1074768 (k[5mC]*kT*kT*dA*dT*d[5mC]*d[5mC]*d[5mC]*dA*dA*dT*dG*d[5mC]*kT*kA*k[5mC]; antisense) [compound 1074768]
YAP1 (% UTC) [1]: 11 % UTC

1075945 (kG*kT*kA*dT*dT*dA*dG*dG*dA*dA*d[5mC]*dA*dG*kA*kT*k[5mC]; antisense) [Compound 1075945]
YAP1 (% UTC) [2]: 11 % UTC

716364 (k[5mC]*kG*k[5mC]*d[5mC]*dG*d[5mC]*dG*dG*dG*dT*dG*d[5mC]*d[5mC]*kG*kG*kT; antisense) [Compound 716364]
YAP1 (% UTC) [10]: 110 % UTC

1075795 (kG*kT*kA*dA*dT*dT*dA*dT*dA*dT*dA*d[5mC]*d[5mC]*k[5mC]*kA*k[5mC]; antisense) [compound 1075795]
YAP1 (% UTC) [5]: 66 % UTC

1075976 (kA*kT*kT*dA*dA*dA*dA*dG*dT*d[5mC]*dG*dG*dG*k[5mC]*k[5mC]*kA; antisense) [Compound 1075976]
YAP1 (% UTC) [3]: 92 % UTC

1075752 (k[5mC]*kA*kT*dA*dA*dT*dT*dA*dT*dA*d[5mC]*dT*dG*kA*kT*k[5mC]; antisense) [Compound 1075752]
YAP1 (% UTC) [3]: 19 % UTC

1075813 (kA*k[5mC]*kT*dA*dA*dT*dA*dT*dG*d[5mC]*dA*dA*d[5mC]*kT*k[5mC]*kT; antisense) [Compound 1075813]
YAP1 (% UTC) [6]: 4 % UTC

1076519 (antisense kA*k[5mC]*kA*d[5mC]*dA*dA*d[5mC]*dA*d[5mC]*dG*dA*d[5mC]*dA*kG*k[5mC]*kA) [Compound 1076519]
YAP1 (% UTC) [12]: 31 % UTC

716443 (kT*kT*kA*dT*dG*dT*dG*dA*d[5mC]*dT*dA*dA*dT*kG*kA*kT; antisense) [Compound 716443]
YAP1 (% UTC) [11]: 73 % UTC

1074482 (kT*kA*kA*dT*dA*dT*dG*dG*dT*d[5mC]*dA*dT*dT*kT*kG*k[5mC]; antisense) [compound 1074482]
YAP1 (% UTC) [7]: 12 % UTC

1074791 (k[5mC]*kT*k[5mC]*d[5mC]*dA*dT*d[5mC]*dA*dA*d[5mC]*d[5mC]*dA*dT*kA*kA*kG; antisense) [Compound 1074791]
YAP1 (% UTC) [12]: 20 % UTC
